Columns and labels:
[1] = system: HCT-116 cells; test: Flow cytometry cell cycle analysis (PI staining); assay type: cell-based; conditions: HCT-116, 9.3 µM of compound 6, 48 h
Method: It was clear from the obtained results that member 6 arrested cell cycle progression at the phase G2-M, as it caused a significant elevation of the cell levels by 35.84% versus 12.91% accumulation of the control cells.
Were conducted propidium iodide (PI) staining and flow cytometry analysis.. In-depth discussions have been held in the Supplementary Data. […]
and were expressed as means ± SD. […]
HCT-116 cells were grown in six-well plates (each one contains 2 x 10^5 cells per well) containing 10% foetal bovine serum and incubated for 24 h at 37 °C and 5% CO2. The medium was replaced with (DMSO 1% v/v) containing the 9.3 µM of compound 6, then incubated for 48 h, collected and washed with cold phosphate buffered saline (PBS). After fixation of the collected cells with ice-cold […] ethanol (70%), the cells were rinsed with PBS then stained with the DNA fluorochrome PI, kept for 15 min at 37 °C. Then samples were analyzed with a FACS Caliber flow cytometer. […]

[2] = system: HCT-116 cells; test: Annexin-V/propidium iodide apoptosis assay; assay type: cell-based; conditions: HCT-116, 9.3 µM of compound 6, 48 h
Method: Both extrinsic and intrinsic apoptosis induced by compound 6 in HCT-116 cells was assayed through Annexin-V/propidium iodide staining assay. Marked induction of both early and late apoptosis was observed upon treating HCT-116 cells with 6. […]
Apoptotic activity of compound 6 was evaluated using Annexin V-FITC/PI apoptosis detection kit.
HCT-116 cells ([…]) were seeded and incubated with compound 6 for 48 h, trypsinized, collected and washed with phosphate-buffered saline (PBS) several times; […] cells were stained with […]
Annexin V fluorescein isothiocyanate (FITC) and counterstained with propidium iodide (PI) for 15 min at 37 °C in the dark using the apoptosis detection kit (BD Biosciences, San Jose, CA) according to the manufacturer's protocol. Then, Annexin V-FITC and PI binding were analyzed by a FACS […]
Crystal structure of VEGFR-2 [PDB ID: 2OH4, resolution: 2.07 Å] was obtained from Protein Data Bank. The docking investigation was accomplished using MOE 2014 software. At first, the crystal structure of VEGFR-2 was prepared by removing water molecules. Only one chain was retained beside the co-crystallized ligand. Then, the selected chain was protonated and subjected to minimization of energy process. Next, the active site of the target protein was defined.
Structures of the synthesized compounds and sorafenib (as reference standard) were drawn using ChemBioDraw Ultra 14.0 and saved as MDL-SD format. Such file was opened using MOE to display the 3D structures which were protonated and subjected to energy minimization. Formerly, validation of the docking process was performed by docking the co-crystallized ligand against the isolated pocket of active site. The produced RMSD value indicated the validity of process. Finally, docking of the tested compounds was done through the dock option inserted in compute window.
For each docked molecule, 30 docked poses were produced using ASE for scoring function and force field for refinement. The results of the docking process were then visualized using Discovery […]
ADMET descriptors (absorption, distribution, metabolism, excretion and toxicity) of the compounds were determined using Discovery studio 4.0. At first, the CHARMM force field was applied then the tested compounds were prepared and minimized according to the preparation of small molecule protocol. Then ADMET descriptors protocol was applied to carry out these studies.
The toxicity parameters of the synthesized compounds were calculated using Discovery studio 4.0.
Sorafenib was used as a reference drug. At first, the CHARMM force field was applied then the […]

[3] = system: HCT-116; test: In vitro anti-proliferative activity (MTT); assay type: cell-based; conditions: Homo sapiens, mean ± S.D. of three experiments, read-out: In Vitro Cytotoxicity IC50 HCT-116
Method: (§1) The latter cells were selected owing to their VEGFR-2 overabundance.
(§2) Was conducted the experiment by the MTT procedure. In-depth discussions have been held in the Supplementary Data. […]
(§3) ✓ In vitro anti-proliferative activity against HepG-2 and HCT-116
(§4) The cells were cultured in RPMI-1640 medium supplemented with 10% fetal bovine serum (FBS), penicillin (100 unit /mL) and streptomycin sulphate (100µg/mL) at 37 °C in a 5% CO2 incubator.
(§5) Then, cells were dropped in 96-well plates at a density of 3-8 × 10^3 cells/well and incubated for two days in a 5% CO2 incubator at 37 °C. Then, the cells were treated with the synthesized compounds and the cell cultures were continued incubated for 24 h. However, Different concentrations of the compound under test (0.0, 5.0, 12.5, 25.0 and 50 mg/ml) were added to the cell monolayer. Then, (3-[4,5-dimethylthiazol-2-yl]- 2,5-diphenyltetrazolium bromide) MTT solution (20 µl, 5mg/mL) was added to each well and incubated for additional 4 h. The formed purple crystals of MTT-formazan were dissolved in 100 µl DMSO each well; the absorbance of each well was measured at 570 nm using a plate reader (EXL 800, USA). All compounds were tested three times. The relative cell viability in percentage was calculated. The results for IC50 values of the active compounds are […]
(§6) The data represented the mean of three independent experiments in triplicate and were expressed as means ± SD. […]

[4] = system: HepG-2; test: In vitro anti-proliferative activity (MTT); assay type: cell-based; conditions: Homo sapiens, HepG2, mean ± S.D. of three experiments, read-out: In Vitro Cytotoxicity IC50 HepG-2
Method: as §1, §2, §3, §4, §5, §6

[5] = target: Human VEGFR-2 (Homo sapiens, UniProt P35968); test: In vitro VEGFR-2 enzyme inhibition assay (ELISA kit)
Chain of Human VEGFR-2 (P35968 20-1356): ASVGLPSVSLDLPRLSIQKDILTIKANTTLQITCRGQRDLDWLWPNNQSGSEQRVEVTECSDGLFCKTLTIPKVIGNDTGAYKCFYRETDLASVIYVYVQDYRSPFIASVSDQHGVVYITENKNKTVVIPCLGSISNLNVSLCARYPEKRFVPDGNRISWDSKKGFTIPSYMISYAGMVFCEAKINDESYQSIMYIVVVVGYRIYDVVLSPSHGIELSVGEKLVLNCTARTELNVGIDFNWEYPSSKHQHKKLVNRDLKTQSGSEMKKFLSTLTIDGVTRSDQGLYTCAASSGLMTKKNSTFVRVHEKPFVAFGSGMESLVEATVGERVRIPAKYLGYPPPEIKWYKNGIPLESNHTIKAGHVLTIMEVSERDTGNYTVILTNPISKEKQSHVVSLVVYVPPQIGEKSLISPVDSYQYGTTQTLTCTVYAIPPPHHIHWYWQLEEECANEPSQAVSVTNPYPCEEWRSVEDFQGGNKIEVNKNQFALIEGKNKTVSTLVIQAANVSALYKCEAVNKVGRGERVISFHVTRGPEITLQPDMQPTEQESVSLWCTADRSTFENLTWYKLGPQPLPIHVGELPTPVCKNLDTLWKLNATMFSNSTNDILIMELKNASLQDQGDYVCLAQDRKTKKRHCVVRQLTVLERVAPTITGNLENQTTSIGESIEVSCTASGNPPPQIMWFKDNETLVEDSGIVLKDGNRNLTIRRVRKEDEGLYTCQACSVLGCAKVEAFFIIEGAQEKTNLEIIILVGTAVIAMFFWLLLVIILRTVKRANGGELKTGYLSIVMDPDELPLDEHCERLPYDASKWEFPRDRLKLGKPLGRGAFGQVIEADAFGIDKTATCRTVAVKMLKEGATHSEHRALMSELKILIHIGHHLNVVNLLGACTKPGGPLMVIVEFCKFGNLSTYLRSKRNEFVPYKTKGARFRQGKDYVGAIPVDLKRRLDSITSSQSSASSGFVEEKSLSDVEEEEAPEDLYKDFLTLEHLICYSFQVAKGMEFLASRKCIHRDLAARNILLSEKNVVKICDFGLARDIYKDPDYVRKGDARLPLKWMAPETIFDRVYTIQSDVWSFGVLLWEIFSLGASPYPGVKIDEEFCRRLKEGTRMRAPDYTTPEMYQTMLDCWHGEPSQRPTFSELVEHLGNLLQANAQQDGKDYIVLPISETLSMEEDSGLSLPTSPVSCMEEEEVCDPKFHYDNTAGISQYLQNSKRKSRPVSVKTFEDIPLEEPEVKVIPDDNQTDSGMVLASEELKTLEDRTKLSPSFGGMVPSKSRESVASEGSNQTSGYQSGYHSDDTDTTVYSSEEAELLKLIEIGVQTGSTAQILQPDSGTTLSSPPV
Method: The ability of the four synthesized congeners to inhibit the VEGFR-2 enzyme in HCT-116 cells was also evaluated.
✓ Assessment of VEGFR-2 inhibition

[6] = system: human tumor necrosis factor alpha (TNF-α); test: In vitro immunomodulatory assay, TNF-α; assay type: cell-based; conditions: HCT-116 cells
Method: (§7) The immunomodulatory potentialities of congeners 6 and 7 on HCT-116 cells was also assayed. Two well-defined immunity markers, human tumor necrosis factor alpha (TNF-α), and interleukin 6 (IL6), were measured following the treatment with each compound. In addition, dexamethasone was co-assayed as a reference drug. A considerable reduction in both markers was noticed regarding the two compounds (Table 4).

[7] = system: interleukin 6 (IL6); test: In vitro immunomodulatory assay, IL6; assay type: cell-based; conditions: HCT-116 cells
Method: as §7

[8] = system: VEGFR-2; conditions: Reported nicotinamide VEGFR-2 inhibitor, Figure 2; no reference given; cited from earlier work

| Structure (SMILES) | IC50 [5] [µM] | IC50 [3] [µM] | IC50 [4] [µM] | % Inhibition of TNF-α pg/mL [6] [%] | % Inhibition of IL6 pg/mL [7] [%] | also measured |
| --- | --- | --- | --- | --- | --- | --- |
| CC(=NNC(N)=O)c1ccc(NC(=O)c2cccnc2)cc1 [Compound 10, N-{4-[1-(2-Carbamoylhydrazineylidene)ethyl]phenyl}nicotinamide] | 0.0636 ± 0.00331 | 24.2 ± 0.06 | 17.6 ± 0.048 |  |  |  |
| C[C@@H]1C[C@H]2[C@@H]3CCC4=CC(=O)C=C[C@]4(C)[C@@]3(F)[C@@H](O)C[C@]2(C)[C@@]1(O)C(=O)CO [Dexamethasone, reference compound] |  |  |  | 82.47 | 93.15 |  |
| C/C(=N\Nc1ccccc1)c1ccc(NC(=O)c2cccnc2)cc1 [II] |  |  |  |  |  | IC50 [8]: 0.0231 µM |

Second part, led by results:

| IC50 [5] [µM] | Structure (SMILES) | IC50 [3] [µM] | IC50 [4] [µM] | % Inhibition of TNF-α pg/mL [6] [%] | % Inhibition of IL6 pg/mL [7] [%] | also measured |
| --- | --- | --- | --- | --- | --- | --- |
| 0.0608 ± 0.00381 | O=C(NN=Cc1ccc(Cl)cc1)c1ccc(NC(=O)c2cccnc2)cc1 [Compound 6, N-{4-[2-(4-Chlorobenzylidene)hydrazine-1-carbonyl]phenyl}nicotinamide] | 9.3 ± 0.02 | 7.8 ± 0.025 | 66.42 | 57.34 | % G0-G1 [1]: 36.71%; % G2-M [1]: 35.84%; % Pre-G1 [1]: 16.93%; % S [1]: 27.45%; Apoptosis Early [2]: 5.78%; Apoptosis Late [2]: 9.75%; Apoptosis Total [2]: 16.93; Necrosis [2]: 1.40% |
| 0.129 ± 0.00832 | O=C(NN=Cc1ccccc1O)c1ccc(NC(=O)c2cccnc2)cc1 [Compound 7, N-{4-[2-(2-Hydroxybenzylidene)hydrazine-1-carbonyl]phenyl}nicotinamide] | 15.9 ± 0.041 | 10.2 ± 0.035 | 60.54 | 52.75 |  |
| 0.23 ± 0.0102 | O=C(NN=Cc1c[nH]c2ccccc12)c1ccc(NC(=O)c2cccnc2)cc1 [Compound 8, N-{4-[2-((1H-Indol-3-yl)methylene)hydrazine-1-carbonyl]phenyl}nicotinamide] | 20.5 ± 0.052 | 16.03 ± 0.051 |  |  |  |
